Laboratory results taken from the NIST ThermoML archive (doi:10.1016/j.fluid.2014.09.020).
± gives the expanded uncertainty stated by the source.

Test: mn = molality of the nth substance listed, in mol/kg
Conditions: 101 kPa, Liquid; for viscosity: Capillary tube (Ostwald / Ubbelohde) method; for electrical conductivity: Direct current cell with electrodes; for mass density: Vibrating tube method

CCC[N+]1(C)CCCCC1.[Br-] [1-methyl-1-propylpiperidinium bromide] + O
Conditions	electrical conductivity [S/m]	mass density [kg/m3]	viscosity [mPa·s]
293.15 K, m1 = 0.2501	1.61 ± 0.02	1008.72 ± 0.24	1.291 ± 0.016
293.15 K, m1 = 0.5	2.44 ± 0.02	1018.24 ± 0.24	1.402 ± 0.017
293.15 K, m1 = 0.75	3.08 ± 0.02	1027.42 ± 0.25	1.529 ± 0.019
293.15 K, m1 = 0.9998	3.57 ± 0.02	1036.22 ± 0.26	1.669 ± 0.021
293.15 K, m1 = 1.25	3.91 ± 0.02	1044.44 ± 0.26	1.84 ± 0.023
293.15 K, m1 = 1.5	4.14 ± 0.02	1052.29 ± 0.27	2.03 ± 0.025
293.15 K, m1 = 1.75	4.29 ± 0.02	1059.77 ± 0.28	2.216 ± 0.027
293.15 K, m1 = 2.001	4.38 ± 0.02	1066.77 ± 0.28	2.419 ± 0.03
293.15 K, m1 = 2.2	4.41 ± 0.02	1072.13 ± 0.29	2.604 ± 0.032
293.15 K, m1 = 2.4	4.44 ± 0.02	1077.21 ± 0.29	2.792 ± 0.034
298.15 K, m1 = 0.2501	1.75 ± 0.02	1007.5 ± 0.23	1.178 ± 0.015
298.15 K, m1 = 0.5	2.64 ± 0.02	1016.88 ± 0.24	1.259 ± 0.016
298.15 K, m1 = 0.75	3.33 ± 0.02	1025.92 ± 0.25	1.356 ± 0.017
298.15 K, m1 = 0.9998	3.86 ± 0.02	1034.59 ± 0.26	1.466 ± 0.018
298.15 K, m1 = 1.25	4.23 ± 0.02	1042.69 ± 0.26	1.607 ± 0.02
298.15 K, m1 = 1.5	4.48 ± 0.02	1050.42 ± 0.27	1.769 ± 0.022
298.15 K, m1 = 1.75	4.65 ± 0.02	1057.79 ± 0.27	1.922 ± 0.024
298.15 K, m1 = 2.001	4.76 ± 0.02	1064.7 ± 0.28	2.091 ± 0.026
298.15 K, m1 = 2.2	4.81 ± 0.02	1069.98 ± 0.28	2.249 ± 0.028
298.15 K, m1 = 2.4	4.85 ± 0.02	1074.98 ± 0.29	2.408 ± 0.03
303.15 K, m1 = 0.2501	1.9 ± 0.02	1006.09 ± 0.23	1.044 ± 0.013
303.15 K, m1 = 0.5	2.83 ± 0.02	1015.33 ± 0.24	1.116 ± 0.014
303.15 K, m1 = 0.75	3.57 ± 0.02	1024.23 ± 0.25	1.203 ± 0.015
303.15 K, m1 = 0.9998	4.14 ± 0.02	1032.75 ± 0.25	1.302 ± 0.016
303.15 K, m1 = 1.25	4.54 ± 0.02	1040.75 ± 0.26	1.424 ± 0.018
303.15 K, m1 = 1.5	4.82 ± 0.02	1048.38 ± 0.27	1.559 ± 0.019
303.15 K, m1 = 1.75	5.04 ± 0.02	1055.64 ± 0.27	1.688 ± 0.021
303.15 K, m1 = 2.001	5.18 ± 0.02	1062.46 ± 0.28	1.827 ± 0.023
303.15 K, m1 = 2.2	5.24 ± 0.02	1067.67 ± 0.28	1.951 ± 0.024
303.15 K, m1 = 2.4	5.3 ± 0.02	1072.61 ± 0.29	2.073 ± 0.026
308.15 K, m1 = 0.2501	2.04 ± 0.02	1004.66 ± 0.23	0.9225 ± 0.012
308.15 K, m1 = 0.5	3.03 ± 0.02	1013.72 ± 0.24	0.9723 ± 0.012
308.15 K, m1 = 0.75	3.82 ± 0.02	1022.62 ± 0.25	1.037 ± 0.013
308.15 K, m1 = 0.9998	4.43 ± 0.02	1030.82 ± 0.25	1.113 ± 0.014
308.15 K, m1 = 1.25	4.86 ± 0.02	1038.67 ± 0.26	1.206 ± 0.015
308.15 K, m1 = 1.5	5.16 ± 0.02	1046.1 ± 0.27	1.311 ± 0.016
308.15 K, m1 = 1.75	5.4 ± 0.02	1053.72 ± 0.27	1.417 ± 0.018
308.15 K, m1 = 2.001	5.57 ± 0.02	1060.11 ± 0.28	1.53 ± 0.019
308.15 K, m1 = 2.2	5.65 ± 0.02	1065.32 ± 0.28	1.629 ± 0.02
308.15 K, m1 = 2.4	5.72 ± 0.02	1070.23 ± 0.29	1.728 ± 0.021
